# Assay results published in patent publication US10745432B2, “Crystal of 6′-sialyllactose sodium salt, and process for producing same” (KYOWA HAKKO BIO CO., LTD., priority 2015, dated 2020).
# Experiments:
# Assay type in all cases: physicochemical
# [1] = Degree of coloration (transmittance at 430 nm) when a heat load at 60° C. was applied; details: for degree of coloration, transmittance T % 430 nm: solution at 100 g/L in terms of anhydrate, 1 cm
# Experimental: Further, with respect to the crystal of 6SL sodium salt 4.6-hydrate and known amorphous 6SL sodium salt, the degree of coloration when a heat load at 60° C. was applied was compared, and the results are shown in Table 4.
# The degree of coloration is expressed by transmittance T % 430 nm 100×10^−A (A=Abs: 430 nm, 1 cm), which was obtained by dissolving each substance at 100 g/L in terms of an anhydrate and performing measurement for the solution.
# [2] = Hygroscopicity: weight change on storage at 30° C., relative humidity 80%
# Experimental: The hygroscopicity of the obtained crystal of 6SL sodium salt 4.6-hydrate and that of a 6SL sodium reagent (amorphous salt, manufactured by Carbosynth Limited) were compared under the following conditions.
# Storage condition: 30° C., relative humidity: 80% (apparatus: THE051FA, manufactured by Advantec Toyo Kaisha Ltd.).
# Measurement method: After about 100 mg of a sample was weighed with a precision balance, the sample was packed in a glass container and stored under the above-mentioned conditions. Thereafter, the sample was weighed again, and the weight change ratio was calculated.
# Incidentally, the weight of the sample at each elapsed time was measured by assuming the weight of each sample at the start of the test to be 100%.
# [3] = pH of aqueous solution of the crystal; details: aqueous solution at 100 g/L in terms of crystal of 6SL sodium salt 4.6-hydrate
# Experimental: As for the pH, an aqueous solution at 100 g/L in terms of crystal of 6SL sodium salt 4.6-hydrate was measured.
"degree of coloration, transmittance T % 430 nm ([1]; elapsed time 0 days, sodium salt)","degree of coloration, transmittance T % 430 nm ([1]; elapsed time 3 days, sodium salt)","degree of coloration, transmittance T % 430 nm ([1]; elapsed time 6 days, sodium salt)","weight of sample (weight at start of test = 100%) ([2]; elapsed time 0.5 hours, sodium salt)","weight of sample (weight at start of test = 100%) ([2]; elapsed time 2.5 hours, sodium salt)","weight of sample (weight at start of test = 100%) ([2]; elapsed time 8 hours, sodium salt)","weight of sample (weight at start of test = 100%) ([2]; elapsed time 20 hours, sodium salt)","degree of coloration, transmittance T % 430 nm ([1]; elapsed time 0 days)","degree of coloration, transmittance T % 430 nm ([1]; elapsed time 3 days)","degree of coloration, transmittance T % 430 nm ([1]; elapsed time 6 days)","weight of sample (weight at start of test = 100%) ([2]; elapsed time 0 hours (start, assumed 100%))",weight of sample (weight at start of test = 100%) ([2]; elapsed time 0.5 hours),weight of sample (weight at start of test = 100%) ([2]; elapsed time 2.5 hours),weight of sample (weight at start of test = 100%) ([2]; elapsed time 8 hours),weight of sample (weight at start of test = 100%) ([2]; elapsed time 20 hours),pH [3],Structure (SMILES),degree of coloration during storage (in words) ([1]; compared with known amorphous 6SL sodium salt),hygroscopicity (in words) ([2]; compared with amorphous salt)
99.4%,99.0%,98.8%,114.4%,119.6%,122.9%,124.1%,–,–,–,–,–,–,–,–,–,"CC(=O)NC1C(O)CC(OCC2OC(OC3C(CO)OC(O)C(O)C3O)C(O)C(O)C2O)(C(=O)[O-])OC1C(O)C(O)CO.[Na+] (stereo not drawn) [Amorphous salt, 6SL sodium salt, reference compound]",–,–
–,–,–,–,–,–,–,99.9%,99.8%,99.8%,100.0%,98.8%,98.6%,98.4%,98.7%,6.23,"CC(=O)NC1C(O)CC(OCC2OC(OC3C(CO)OC(O)C(O)C3O)C(O)C(O)C2O)(C(=O)[O-])OC1C(O)C(O)CO.[Na+] (stereo not drawn) [Crystal of sodium salt, 6SL sodium salt 4.6-hydrate]",lower than that of known amorphous 6SL sodium salt,lower hygroscopicity than the amorphous salt
